Experimental data: patent US20250276127A1, “THERAPEUTIC METHODS AND DEVICES” (NORWEGIAN UNIVERSITY OF SCIENCE AND TECHNOLOGY (NTNU), priority 2021, published 2025)

Tests used:
Type in all cases: in vivo, human
blood flow in the skin = test: Local skin blood flow by laser Doppler after subcutaneous injection
Text: Likewise, the compound with glucagon activity may be administered in an amount which is effective to achieve a local vasodilatory effect, or an effect of increasing local blood flow at the site of its administration. Vasodilatory activity may be assessed, or determined, by measuring blood flow by a laser Doppler method, at an administration site on or in a human or non-human animal subject after administration of the compound. For example, the compound may be injected SC and blood flow just below the skin surface may be determined at the injection site. Such a method is described in Example 1. However, for the methods and uses herein where the compound is used for its effect in the delivery of a therapeutically active agent (e.g. insulin) or in conjunction with the operation of a sensor (e.g. glucose sensor), it is not necessary, and indeed it may be undesirable, for the compound to exert its usual therapeutic effect of increasing blood glucose, or counteracting an episode of hypoglycaemia. The amount, or dose, administered may thus be less, and indeed typically will be less, than a dose which is administered, or typically used, to treat hypoglycaemia. Doses for the compound are discussed in more detail below.
An experiment was performed on 2 young healthy adult human volunteers. The effect of subcutaneous (hereinafter, SC) injections on blood flow in the skin were tested 6 times in the 2 subjects (4 tests in a subject and 2 tests in a subject). The glucagon was administered by SC injection of 0.1 ml of 1 mg/ml glucagon (i.e. an injection containing 0.1 mg of glucagon) to sites on the lateral side of both upper arms of the subjects. Blood flow was measured on the skin surface at the site of administration by laser Doppler technology. As a control the same volume of physiological saline (0.9%) was injected as a placebo at the same sites.
This effect was further investigated in a similar experiment with varying doses of glucagon. Again, the same 2 subjects were used, and SC injections of glucagon or placebo were given 6 times (4 tests in a subject and 2 tests in a subject). The glucagon was administered to sites on the lateral sides of both upper arms in amounts of 0.1 mg, 0.015 mg and 0.01 mg (0.1 ml of glucagon at concentrations of 0.1 mg/ml, 0.015 mg/ml and 0.01 mg/ml, respectively). Blood flow was measured on the skin surface at the site of administration by laser Doppler technology. As a control the same volume of physiological saline (0.9%) was injected as a placebo at the same sites.
Further experiments were conducted to investigate the effect on local blood flow of subcutaneous injections of glucagon in the abdomen. Again, 2 subjects were used, and SC injections of glucagon or placebo were given 6 times (3 tests in a subject and 3 tests in a subject). The glucagon was administered by SC injection of 0.1 ml of 1 mg/ml glucagon (i.e. an injection containing 0.1 mg of glucagon) to sites on both sides of the abdomen of the subjects. Blood flow was measured on the skin surface at the site of administration by laser Doppler technology. As a control the same volume of physiological saline (0.9%) was injected as a placebo at the same sites.
This effect was further investigated in a similar experiment with varying doses of glucagon. Again, 2 subjects were used, and SC injections of glucagon or placebo were given 6 times (3 tests in a subject and 3 tests in a subject). The glucagon was administered to sites on both sides of the abdomen in amounts of 0.1 mg, 0.05 mg and 0.015 mg (0.1 ml of glucagon at concentrations of 0.1 mg/ml, 0.05 mg/ml and 0.015 mg/ml, respectively). Blood flow was measured on the skin surface at the site of administration by laser Doppler technology. As a control the same volume of physiological saline (0.9%) was injected as a placebo at the same sites. […]

[1] = system: glucose levels detected by CGM; test: CGM (Dexcom G6) glucose sensing at meals with injection at the sensor site; conditions: FIG. 26
Description: This effect was further investigated in a similar experiment to investigate the effect of glucagon on the performance of CGMs. Again, 2 subjects were used showing data from 12 meals in a non-diabetic […] and 11 meals in a non-diabetic […] collected with Dexcom G6 CGMs. The subjects wore two CGMs placed symmetrically on the lateral side of each overarm. 1-3 minutes before the start of ingesting the meal 0.1 ml of glucagon (1 mg/ml) was injected at the site of one CGM and 0.1 ml of placebo (saline (0.9%) on the contralateral site of CGM. Before each meal, the site of glucagon delivery was decided by a new randomization.

local blood flow [2] = test: Impact of injection technique (speed) on local blood flow, laser Doppler; conditions: abdomen
Description: To observe the impact of injection technique, and particularly speed of injection, on the effect induced by subcutaneous injection of glucagon, an experiment was conducted to compare 2 different injection techniques; one where the injection lasted 1-3 seconds (technique 1), and one where the injection lasted at least 10 seconds (technique 2). 6 injections were given with technique 1 and 4 injections were given with technique 2. In each case, 0.1 mg of glucagon (in a 0.1 ml injection) was injected subcutaneously into the abdomen of the subjects. For each technique, half of the injections were given to a subject and half to a subject. Blood flow was measured on the skin surface at the site of administration by laser Doppler technology.
In addition, in FIG. 21 the same results are shown together with the results of placebo injections of 0.1 ml of 0.9% saline using the same 2 techniques. For technique 1, 6 placebo injections were given, and for technique 2, 2 placebo injections were given. Again, half of the injections with each technique were done in a subject, and half were done in a subject.

local blood flow [3] = test: Impact of laser Doppler probe placement on measured local blood flow; conditions: 0.015 mg SC, upper arms
Description: The impact of the placement of the laser Doppler probe on the measured effect of glucagon injections on local blood flow was investigated by giving injections at multiple sites with varying distances from the probe. The experiment involved the subcutaneous injection of 0.015 mg of glucagon (in 0.1 ml) or 0.1 ml of 0.9% saline as a control at sites on the lateral sides of the upper arms of the subjects. The injections were given either under the probe, 1.6 cm from the probe centre, 3 cm from the probe centre, or 5 cm from the probe centre. In each case, 6 injections were given, except for 1.6 cm from the probe centre where only 4 saline injections were given. In all cases, half of the injections were given to a subject and half to a subject, except for under the probe, where 4 tests were done on the subject and 2 on the subject. Blood flow was measured on the skin surface by laser Doppler technology.

In the case of glucagon, the “increase in local blood flow relative to higher doses” value (blood flow in the skin; 0.01 mg SC, lateral upper arms, FIG. 15) is reported as “similar, although less pronounced”, the “effect on local blood flow relative to control injection” value (blood flow in the skin; 0.01 mg SC, thighs, FIG. 23/24) is reported as “did not appear to have a significant effect on local blood flow” and the “effect on local blood flow relative to control injection” value (blood flow in the skin; 0.015 mg SC, abdomen, FIG. 18/19) is reported as “did not appear to have a significant effect on local blood flow”. The “increase in local blood flow” value (blood flow in the skin; 0.015 mg SC, lateral upper arms, average of 6 tests, FIG. 15) was 400-450 % of the baseline reading, the “increase in local blood flow among doses” value (blood flow in the skin; 0.03 mg SC, thighs, FIG. 23/24) was “biggest increase in local blood flow” and the “initial increase in local blood flow” value (blood flow in the skin; 0.05 mg SC, abdomen, FIG. 18/19) was “did not result in a significant increase in local blood flow initially”. For the same substance, the “local blood flow versus control injection after 15 minutes” value (blood flow in the skin; 0.05 mg SC, abdomen, after 15 minutes) was “higher than that observed at the same time after the control injection”, the “persistence of increase in local blood flow versus control” value (blood flow in the skin; 0.05 mg SC, thighs, FIG. 22) was “more persistent than that observed following administration of the control” and the “time after which blood flow values of glucagon and placebo were approximately equal” value (blood flow in the skin; 0.05 mg SC, thighs, FIG. 22) was “around 30 minutes”. For the same substance, the “increase in local blood flow versus saline control” value (blood flow in the skin; 0.05 mg SC, thighs, FIG. 23/24) was “slightly larger than that observed following administration of the saline control”, the “persistence of increase in local blood flow versus saline control” value (blood flow in the skin; 0.05 mg SC, thighs, FIG. 23/24) was “significantly more persistent” and the “increase in local blood flow versus saline” value (blood flow in the skin; 0.05 mg SC, thighs, average of 7 tests, FIG. 22) was “slightly greater than that observed when saline was administered”. For the same substance, the “persistence of increase in local blood flow versus control” value (blood flow in the skin; 0.1 mg SC, abdomen, FIG. 17) was “more persistent than that observed following administration of the control”, the “time after which blood flow values of glucagon and placebo were approximately equal” value (blood flow in the skin; 0.1 mg SC, abdomen, FIG. 17) was “around 30 minutes” and the “initial increase in local blood flow versus control” value (blood flow in the skin; 0.1 mg SC, abdomen, FIG. 18/19) was “greater than that seen following the administration of the same control”. The “increase in local blood flow versus saline” value (blood flow in the skin; 0.1 mg SC, abdomen, average of 6 tests, FIG. 17) was “slightly greater than that observed when saline was administered”, the “blood flow after returning to "normal" versus before injection” value (blood flow in the skin; 0.1 mg SC, lateral upper arms, FIG. 14) was “increased compared to before the glucagon injection” and the “effect on local blood flow (flow increase)” value (blood flow in the skin; 0.1 mg SC, lateral upper arms, average of 6 tests, FIG. 14) was “several hundred percent”. For the same substance, the “increase in local blood flow” value (blood flow in the skin; 0.1 mg SC, lateral upper arms, average of 6 tests, FIG. 15) was 400-450 % of the baseline reading, the “period over which the vasodilatory effect can be seen” value (blood flow in the skin; SC, upper arms, FIG. 15) was 35 to 40 min and the “increase of blood flow at the site of administration” value (blood flow in the skin; administered sub-cutaneously, small blood vessels in the skin (summary statement)) was “several hundred percent”. For the same substance, the “persistence of increase in blood flow” value (blood flow in the skin; all doses (0.1, 0.015, 0.01 mg) SC, upper arms, not seen with placebo) was “found to persist even once the value had stabilised”, the “dose at which a vasodilatory effect has been observed” value (blood flow in the skin; in certain body regions, in some subjects) was less than 0.01 mg and the “change in local blood flow on administration” value (blood flow in the skin; summary of the Examples) was “immediate and large increase in local blood flow”. The “level to which blood flow returns” value (blood flow in the skin; summary of the Examples, maintained over a prolonged period) was “higher than the baseline level before glucagon administration”, the “glucose levels detected by CGM after meal versus placebo site” value ([1]; 0.1 ml of 1 mg/ml injected at CGM site 1-3 minutes before meal, overarm, 23 meals) was “faster and larger increase in glucose levels detected compared to placebo” and the “time at which the effect on CGM glucose can be clearly seen” value ([1]; in one of the subjects) was 10 min. The “persistence of effect of the "slow" injection on local blood flow” value (local blood flow [2]; 0.1 mg SC, technique 2, versus fast glucagon and placebo injections) was “more persistent than the effects of any of the other injections”, the “increase in local blood flow, technique 2 (injection at least 10 seconds) versus technique 1 (1-3 seconds)” value (local blood flow [2]; 0.1 mg in 0.1 ml SC, FIG. 20/21) was “significantly larger increase in local blood flow” and the “effect on blood flow versus placebo” value (local blood flow [3]; injection 1.6 cm or 3 cm from probe centre) was “larger than placebo”. The “effect on blood flow versus placebo” value (local blood flow [3]; injection 5 cm from probe centre) was “except for injection 5 cm from the probe the effect was larger than placebo”, the “increase in local blood flow, placebo subtracted” value (local blood flow [3]; injection at greater distances (1.6, 3 or 5 cm from probe centre)) was “less significant” and the “increase in local blood flow, placebo subtracted” value (local blood flow [3]; injection directly under the probe, FIG. 25) was “largest increase in local blood flow”.
